How the values were obtained:
[1] = Fluorescence emission studies for HNO detection in aq. PBS buffer-CH3CN
Experimental: The spectroscopic properties of ER-HNO in aq. PBS buffer medium under physiological pH medium. No significant difference is observed in the electronic spectra of ER-HNO and ER-S. In order to check the response of ER-HNO probe (10 uM) with in presence of 20 mole equivalent of various ROS and RNS (HNO, HOCl, H2O2, —OH, TBHP, NO3^−, NO2^−, benzoyl peroxide, S^2− and ascorbate) emission spectra are recorded in aq. […] A turn ON emission response is observed for probe ER-HNO, only in presence of HNO with λEms^Max=580 nm (λExt=530 nm). Moreover, no significant changes are observed in presence of different anionic, cationic as well as biothiols under identical experimental condition. The effects of pH on emission spectrum of probe ER-HNO is also investigated. […] Therefore, to explore the bio analytical application, all the studies are carried out at physiological pH medium.
An enhancement in emission signal are observed at λMax=586 nm (Φ=0.105, for λExt=530 nm) with gradual increasing [HNO] (FIG. 1B). A good linearity is observed between emission intensity and concentration of HNO in the range of 2-15 uM, with a lower detection limit of 2 μM. […] PBS buffer medium.
Stock solution of probe ER-HNO (1×10^−4M) was prepared in HPLC grade acetonitrile. All the analytes stock solution (1×10^−2M) was prepared in aqueous HEPES buffer (10 mM) medium at pH 7.2. […]

Hct116 cells [2] = test: CLSM imaging of HNO in Hct116 cells; assay type: cell-based; details: Hct116, probe 1 μM 15 min, then HNO 20 μM
Experimental: (§1) An MTT assay confirmed the non-toxic nature of probe ER-HNO towards live Hct116. Therefore, ER-HNO is tested as an imaging reagent for the detection of HNO in Hct116 colon cancer. The cells are incubated with probe ER-HNO (1 μM) for 15 min at 37° C. in acetonitrile-PBS buffer (0.2:99.8, v/v) at pH 7.2 and no intracellular fluorescence is observed.
For confocal studies, Hct116 cells (3×10^5) were seeded on cover slips placed in 6 well plates. After 24 hours, Hct116 cells were treated with ER-HNO (1 μM) for 30 minutes at 37° C. in a 5% CO2 air environment. Cells were then washed thrice with Phosphate Buffer (1×PBS) and fixed with 4% PFA for 20 minutes and washed again with IX PBS. Nail paint was used to seal the cover slips mounted on the glass slides for each well plates. Again Hct116 cells were pre-treated with ER-HNO (1 μM) for 15 minutes, then Hct116 cells were further expose to Angeli's salt (HNO donor), then cells were washed thrice with media and followed by incubation with ER-HNO (1 μM) for another 15 minutes under same conditions. Cells were again washed with 1×PBS buffer and fixed with 4% PFA for 20 minutes and washed again with 1×PBS. Confocal laser scanning microscopic (CLSM) images were acquired in Olympus Fluoview Microscope with λExt/λMon=530/573 nm.

Hct116 cells [3] = test: Flow cytometry, DCFDA staining; assay type: cell-based; details: Angeli's salt 10 uM, 30 uM probe, 2 hrs
Experimental: For DCFDA staining, HCT116 cells were cultured in DMEM medium containing 5 mM glucose supplemented with 10% FBS and 100 Units of antibiotics. Prior to the treatment processes, DMEM medium with 1% FBS was treated with N-Ethylmalemide (NEM) 1 mM and this medium was used to culture the cells further. Cells were treated with Angeli's salt 10 uM, L 30 uM or both for 2 hrs. After treatment cells were harvested by trypsinization and washed with complete DMEM media by centrifugation. Pellet was suspended in 1 ml of PBS buffer. 10 μM DCFDA (Sigma) was added to cells followed by incubation at 37° C. 5% CO2 incubator for 45 mins. DCFDA stained cells were analyzed in BD FACS Canto II using FITC channel. For Annexin V staining cultured HCT116 cells were harvested after trypsinization and washed with 1×PBS buffer. 500 ul of Annexin V binding buffer was used to re-suspend the cells. 5 ul of Annexin-V FITC antibody added to the re-suspended cell and incubated in dark for 5 mins. Antibody stained cells were then analyzed using BD Calibur FACs in FITC channel. The flow cytometry experiment confirmed that probe ER-HNO is capable of reducing RNS & ROS level induced by HNO [FIG. 5 (b)].

Artemia nauplii = test: Fluorescence imaging of Artemia nauplii; assay type: in vivo; details: probe 1 μM 30 minutes, then HNO
Experimental: Imaging of Artemia nauplii by luminescence was performed using a fluorescence microscope with a 20×, 0.4 NA microscope objective (Olympus), coupled to an intensified CCD camera. The Artemia nauplii were imaged in both bright-field and epifluorescence geometries. The latter was enabled by a fluorescence filter set. The illumination intensity was about 10 W/mm^2.

Hct116 cells [4] = test: MTT assay towards live Hct116; assay type: cell-based
Experimental: as §1

RAW 264.7 cells [5] = test: MTT assay, in vitro cytotoxicity on RAW 264.7 cells; assay type: cell-based
Experimental: The in vitro cytotoxicity of ER-HNO on RAW 264.7 cells were determined by conventional MTT (3-(4, 5-Dimethylthiazol-2-yl)-2, 5-diphenyltetrazolium bromide) assay. RAW 264.7 cells (5×103) were seeded in each well of a 96 well plate and cultured in a 37° C. incubator supplied with 5% CO2. Cells were maintained in DMEM medium, supplemented with 10% Foetal Bovine Serum and 100 Units of Penicillin Streptomycin antibiotics. After 24 hours the cells were treated with different concentrations of the ER-HNO in triplicates for 24 hours. After the treatment, cells were added with […] of MTT reagent. The plate was then incubated for 4 hours at 37° C. 100 μl of Isopropyl Alcohol was added to each well. Optical density was measured at 570 nm using Multiskan Go (Thermo Scientific) to find the concentration of the cell inhibition. IC50 value has been calculated to be 90 μM.
The formula used for the calculation of the MTT assay for evaluation of the cell viability was as follows:
Cell viability (%)=(Means of absorbance value of treated group/Means of absorbance value of untreated control)×100.

SERCA2 = test: Western blot monitoring of SERCA2; assay type: cell-based; details: HCT116 cells, Angeli's salt 10 uM, ER-HNO 30 μM, 24 hrs
Experimental: HCT116 cells were cultured in DMEM medium containing 10% Fetal Bovine Serum (FBS) supplemented with 100 Units of Penicillin Streptomycin antibiotics. Cells were treated with Angeli's salt 10 uM, ER-HNO 30 μM or both for 24 hrs. Prior to the treatment processes, DMEM medium was treated with N-Ethylmalemide (NEM) 1 mM and this medium was used to culture the cells. Post 24 hrs cells harvested and whole cell lysate proteins extracted. 40 ug of the proteins were resolved in SDS PAGE gel and transferred into PVDF membrane using Western Blot methods. The blot was over-night blocked with 5% Bovine Serum Albumin (BSA) at 4° C. 1:4000 dilution of SERCA2 antibody was to probe the blot for 2 hrs at room-temperature (RT). After three washes with 1×TBST, 1:4000 dilution of anti-rabbit HRP conjugated antibody was used to probe the blot for 1 hr at RT. After three washes with IX TBST, the blot was developed using auto-radiography in X-ray film.

RAW 264.7 cells [6] = test: CLSM imaging of HNO in RAW 264.7 cells; assay type: cell-based; details: RAW 264.7, probe 1.0 μM 15 min 37° C., then AS
Experimental: The toxicity of the probe molecule toward live RAW 264.7 macrophages cells and cytotoxicity assays confirmed the low toxicity of the probe. The results encouraged to explore the use of the probe as an imaging reagent for the intracellular detection of HNO in these macrophage cells. Cells in DMEM culture media are incubated with ER-HNO (1.0 μM) for 15 min at 37° C. and subsequently viewed under confocal laser scanning microscope (CLSM) using a 530 nm laser as an excitation source.
RAW 264.7 cells were seeded on cover slips placed in 6 well plates. After 24 hours cells washed with DMEM medium then cells were treated with ER-HNO (1 μM) for 25 minutes. Cells were then washed thrice with culture medium and further treated with Angeli's salt (HNO donor) of different concentration for 30 min. After that cells were washed again with Phosphate Buffer Saline (3×PBS). Then cells were fixed with 4% PFA for 10 min. Again cells were washed thrice and then cover slips mounted using mounting medium. Nail paints was used to seal the coverslips mounted on the glass slides. Images were acquired by using Olympus FluoView FV-1000 Confocal Microscope.
RAW 264.7 cells were seeded on Coverslips (22 mm×22 mm, 170±5 μm square Cover glasses) placed in 6-well plates in DMEM culture medium containing (10% FBS and 1% penicillin-streptomycin) for 24 h at 37° C. 5% CO2. […]

## (E)-4-(2-(5,5-difluoro-1,7,9-trimethyl-10-phenyl-5H-5l4,6l4-dipyrrolo[1,2-c:2′,1′-f][1,3,2]diazaborinin-3-yl)vinyl)phenyl 2-(diphenylphosphanyl)benzoate [ER-HNO]
[1]; pH 4-10
  emission intensity of the probe within pH range 4-10: remains unaltered
[1]; probe 10 uM, 20 mole equivalent of HOCl, H2O2, OH, TBHP, NO3-, NO2-, benzoyl peroxide, S2-, ascorbate
  change in emission intensity in presence of other ROS/RNS (selectivity): no change in emission intensity
Hct116 cells [2]
  intracellular fluorescence after HNO exposure: strong intracellular fluorescence
Hct116 cells [3]
  RNS induced by Angeli's Salt (DCFDA staining): reduced
Artemia nauplii
  fluorescence in Artemia nauplii on exposure to HNO: strong fluorescence
Hct116 cells [4]
  toxicity towards live Hct116 (MTT assay): non-toxic
RAW 264.7 cells [5]; RAW 264.7 cells, 24 hours treatment, read-out: IC50 (MTT cell viability)
  IC50: 90 µM
RAW 264.7 cells [5]; cytotoxicity assays
  toxicity toward live RAW 264.7 macrophages cells: low toxicity
SERCA2
  counteraction of the stabilized expression of SERCA2: at least 50%
RAW 264.7 cells [6]
  intracellular fluorescence after exposure to AS: strong intracellular fluorescence
